{"source": "patent US20060270727A1", "about": "“Small molecule therapeutics and uses therefor” (priority 2005, published 2006)", "key": {"[1]": {"target": "GAA·TTC duplex repeats in the frataxin gene; radiolabeled PCR product containing a (GAA)6 sequence", "assay": "Quantitative DNase I footprinting on (GAA)6 DNA", "assay_type": "binding", "settings": "for sequence specificity: DNase I footprinting; for binding affinity for duplex GAA•TTC repeat DNA, in words: compared with FA1", "excerpt": "Targeting GAA Repeat DNA with Polyamides. β-Alanine linked polyamides FA1-FA6 were synthesized (see Example 6) with sequence, theoretical DNA binding site, theoretical DNA binding site SEQ ID NO: ______) and binding affinity as shown in Table 1. […] Those of skill in the art will recognize that this value may be an underestimation of the affinity of this molecule for GAA repeat DNA since the KD measurements are limited by a minimum DNA concentration of ˜2 pM in the binding reaction. Radiolabeling of nucleic acid incorporated γ^32P ATP and polynucleotide kinase used standard procedures.\nPolyamlde Synthesis and Characterization. Polyamides were synthesized by solid phase methods (Urbach & Dervan, Id.; Baird & Dervan, 1996, J. Am. Chem. Soc. 118:6141-6146) and their identity and purity verified by MALDI-TOF MS and analytical HPLC, using methods well known in the art. Fluorescent conjugates were prepared by coupling BODIPY (Molecular Probes) to the carboxyl-terminus (Best et al., 2003, Proc. Natl. Acad. Sci. U.S.A. 100:12063-12068). Binding affinities for match and mismatch sites were determined by quantitative DNase I footprinting (Trauger & Dervan, Id). A plasmid harboring six GAA repeats was constructed by cloning the oligonucleotide\nin the pCR2.1 TOPO vector (Invitrogen, Calif.), and a 117 bp singly end-labeled PCR product was generated from this plasmid with the following oligonucleotides:\nwhere the second oligonucleotide was labeled with γ-^32P ATP and polynucleotide kinase, using standard procedures, to generate a PCR product labeled on the GAA strand. A 204 bp singly end-labeled PCR product was derived from plasmid pMP142 DNA, containing 33 GAA repeats (Ohshima et al., Id.), with following oligonucleotides: […]"}, "[2]": {"system": "mismatch DNA sequence 5′-GGAGGAGGTGGAGGAGGA-3′ from the erbB2 (Her2-neu) promoter", "assay": "DNase I footprinting on mismatch DNA", "assay_type": "binding, human", "settings": "polyamide concentrations up to 100 nM", "procedure": "Two additional molecules, FA5 [(ImPyβ)4ImβDp] and FA6 [(ImPyβ)5ImβDp], were synthesized in order to target longer regions of GAA repeats in duplex DNA; i.e., (AAG)5 (SEQ ID NO: ______) and (AAG)6 (SEQ ID NO: ______) respectively. […] As another test for sequence specificity, footprinting experiments with FA1 and FA3 and a radiolabeled DNA fragment containing a mismatch DNA sequence 5′-GGAGGAGGTGGAGGAGGA-3′ (SEQ ID NO: ______) were performed.\nThe first oligonucleotide shown was radiolabeled as above to generate a PCR product labeled on the GAA strand. A 150 bp PCR product containing a (GGA•TCC)6 mismatch sequence was derived from the erbB2 (Her2-neu) promoter in human genomic DNA with the following oligonucleotides: […]"}, "[3]": {"system": "frataxin mRNA in GM15850 FRDA lymphoid cell line", "assay": "qRT-PCR of frataxin mRNA, FRDA cell line", "assay_type": "cell-based, human", "settings": "GM15850 FRDA cell line; 7 days incubation", "excerpt": "GAA Specific Polyamides Up Regulate Frataxin mRNA and Protein. To assess whether polyamides alleviate transcription inhibition caused by expanded GAA repeats in the frataxin gene, quantitative real time/reverse transcriptase PCR (qRT-PCR) was used to monitor frataxin mRNA levels in the GM15850 and GM15851 lymphoid cell lines described above; levels of glyceraldehyde 3-phosphate dehydrogenase (GAPDH) mRNA were used as an internal control for each RNA sample; see Example 8. No differences in GAPDH were found between the two cell lines. […] No changes in frataxin mRNA levels were observed on shorter incubation times.\nCell Culture. Epstein Barr virus transformed lymphoblast cell lines GM15850 from a FRDA patient (alleles with 650 and 1030 GAA repeats in the frataxin gene, from the Coriell Cell Repository, Camden, N.J.), and GM15851 from an unaffected sibling (normal range of repeats), were propagated in RMPI 1640 medium with 2 mM L-glutamine and 15% fetal bovine serum at 37° C. in 5% CO2. Cell growth and morphology were monitored by phase contrast microscopy and viability by trypan blue exclusion and an ATP assay (ApoSENSOR™, BioVision). Polyamides were added directly to the culture medium in PBS. Nuclear localization of the polyamides was verified by deconvolution microscopy, by methods well known in the art (see e.g., Dudouet et al., Chem. Biol., 2003, 10: 859-867).\nReal-Time Quantitative RT-PCR. Real-time quantitative RT-PCR (qRT-PCR) analysis was performed essentially as previously described (Chuma, et al., 2003, Hepatology 37:198-207), using the following primers for the frataxin gene: […]\nRNA was standardized by quantification of GAPDH mRNA (Pattyn et al., 2003, Nucleic Acids Res. 31:122-123), and all values are expressed relative to GAPDH. qRT-PCR was performed using iScript One-Step RT-PCR kit with SYBR green (Biorad). Statistical analysis was performed on three independent quantitative RT-PCR experiments for each RNA sample."}, "[4]": {"system": "sticky DNA in plasmid pRW4886, two tracts of (GAA)176", "assay": "Sticky DNA disruption, EcoNI digestion and agarose gel", "assay_type": "biochemical", "settings": "37° C., 1 hr", "procedure": "Influence of Polyamides on Sticky DNA Conformation. Plasmid pRW4886, which contains two tracts of (GAA)176 (SEQ ID NO: ______) in a direct repeat orientation (Vetcher et al., 2002b, Id)., and forms sticky DNA, was treated with polyamides at concentrations of 0-50 μM at 37° C. for 1 hr. Restriction digestion with EcoNI following the polyamide incubation enabled visualization of the presence or absence of an EcoNI cleaved sticky DNA band that runs with decreased mobility compared to the linearized plasmid on 1% agarose gels. Quantitation was by densitometric analysis using Fluor Chem version 3.04 (Alpha Innotech Corp).\nThe capacity of sequence-specific polyamides to disrupt the intramolecular sticky DNA structure formed by GAA repeat tracts was investigated. Plasmids harboring the sticky DNA structure are visualized by gel electrophoresis after restriction endonuclease cleavage, by methods well known in the art. […] Plasmid pRW4886, which contains two tracts of (GAA)176 (SEQ ID NO: ______) in a direct repeat orientation (Vetcher et al., 2002b, Id.), was incubated with each of polyamides FA1, FA2, FA3 and FA4 at concentrations ranging from 0-50 μM. The polyamide-bound DNA was then digested with EcoNI and subjected to electrophoresis on 1% agarose gels to determine the amount of EcoNI cleaved sticky DNA retarded band present. Incubation of pRW4886 DNA with FA3 shifted the equilibrium from a maximum amount of sticky DNA to a complete loss of the EcoNI cleaved sticky DNA retarded band at a concentration of 50 nM. […] For FA1, a 1 μM concentration was needed to dissociate the DNA-DNA structure-forming region. […] Since sticky DNA inhibits transcription (Ohshima et al., Id.; Sakamoto et al., 2001, J. Biol. Chem. 276:27171-27177), and since the polyamides destabilize this conformation by shifting the structural equilibrium to duplex B-type DNA, it is highly likely that the increases in frataxin mRNA observed with polyamide FA1 are due to this structural transition."}, "[5]": {"settings": "quantitative DNase I footprinting, mean and standard deviation, minimum of two determinations, read-out: Binding affinity (KD)"}}, "note": "Where two headings read alike, the source gives them in different places."}
{"smiles": "CN(C)CCCNC(=O)CCNC(=O)c1nc(NC(=O)CCNC(=O)c2cc(NC(=O)c3nc(NC(=O)CCNC(=O)c4cc(NC(=O)c5nc(NC(=O)CCNC(=O)c6cc(NC(=O)c7nccn7C)cn6C)cn5C)cn4C)cn3C)cn2C)cn1C", "note": "[FA3, (ImPyβ)3ImβDp]", "values": [{"measurement": "Kd", "setting": "[1]; footprinting at low (~2 pM) DNA concentrations, may underestimate affinity, read-out: KD", "result": "~3", "unit": "pM"}, {"measurement": "Kd", "setting": "[1]; [5]", "result": "3 ± 1", "unit": "pM"}, {"measurement": "binding to mismatch DNA sequence", "setting": "[2]", "result": "Neither FA1 nor FA3 bound this DNA sequence"}, {"measurement": "effect on frataxin mRNA levels, in words", "setting": "[3]", "result": "did not increase frataxin mRNA levels"}, {"measurement": "concentration for complete loss of the EcoNI cleaved sticky DNA retarded band", "setting": "[4]", "result": 50, "unit": "nM"}]}
{"smiles": "CN(C)CCCNC(=O)CCNC(=O)c1cc(NC(=O)CCNC(=O)c2nc(NC(=O)c3nc(NC(=O)CCNC(=O)c4cc(NC(=O)c5nc(NC(=O)CCNC(=O)c6cc(NC(=O)c7nccn7C)cn6C)cn5C)cn4C)cn3C)cn2C)cn1C", "note": "[FA4, (ImPyβ)2ImImβPyβDp]", "values": [{"measurement": "Kd", "setting": "[1]; (GAA)6 DNA, values in text, read-out: apparent dissociation constant (KD)", "result": 2000, "unit": "pM"}, {"measurement": "binding affinity, times less than FA3", "setting": "[1]; FA4 vs FA3", "result": "~1000", "unit": "times"}, {"measurement": "reduction of binding affinity vs match polyamide", "setting": "[1]; mismatch vs match polyamide (FA2 vs FA1, FA4 vs FA3)", "result": "three orders of magnitude"}, {"measurement": "concentration needed to affect or dissociate sticky DNA", "setting": "[4]", "result": "≥ 5", "unit": "µM"}]}
{"smiles": "CN(C)CCCNC(=O)CCNC(=O)c1nc(NC(=O)CCNC(=O)c2cc(NC(=O)c3nc(NC(=O)CCNC(=O)c4cc(NC(=O)c5nc(NC(=O)CCNC(=O)c6cc(NC(=O)c7nc(NC(=O)CCNC(=O)c8cc(NC(=O)c9nccn9C)cn8C)cn7C)cn6C)cn5C)cn4C)cn3C)cn2C)cn1C", "note": "[FA5, (ImPyβ)4ImβDp]", "values": [{"measurement": "sequence specificity", "setting": "[1]", "result": "less specific than FA1 or FA3"}, {"measurement": "binding affinity for duplex GAA•TTC repeat DNA, in words", "setting": "[1]", "result": "comparable to that of FA1"}, {"measurement": "Kd", "setting": "[1]; [5]", "result": "200 ± 20", "unit": "pM"}]}
{"smiles": "CN(C)CCCNC(=O)CCNC(=O)c1nc(NC(=O)CCNC(=O)c2cc(NC(=O)c3nc(NC(=O)CCNC(=O)c4cc(NC(=O)c5nc(NC(=O)CCNC(=O)c6cc(NC(=O)c7nc(NC(=O)CCNC(=O)c8cc(NC(=O)c9nc(NC(=O)CCNC(=O)c%10cc(NC(=O)c%11nccn%11C)cn%10C)cn9C)cn8C)cn7C)cn6C)cn5C)cn4C)cn3C)cn2C)cn1C", "note": "[FA6, (ImPyβ)5ImβDp]", "values": [{"measurement": "sequence specificity", "setting": "[1]", "result": "less specific than FA1 or FA3"}, {"measurement": "binding affinity for duplex GAA•TTC repeat DNA, in words", "setting": "[1]", "result": "comparable to that of FA1"}, {"measurement": "Kd", "setting": "[1]; [5]", "result": "220 ± 80", "unit": "pM"}]}
{"smiles": "CN(C)CCCNC(=O)CCNC(=O)c1nc(NC(=O)CCNC(=O)c2cc(NC(=O)c3nccn3C)cn2C)cn1C", "note": "[ImPyβImβDp]", "values": [{"measurement": "binding affinity", "setting": "[1]; six bp sequence 5′-AAGAAG-3′", "result": "low μM"}]}
